In patent publication US11420975B2, “Substituted imidazo[1,5-a]pyrazines as Bruton's tyrosine kinase inhibitors” (TRANSTHERA SCIENCES (NANJING), INC., priority 2018, dated 2022) one finds IC50 data, which are given here for 17 compounds.

The target of one assay is BTK(wt) (Homo sapiens (Human), UniProt Q06187). The experiment in a line: In vitro inhibitory activity against BTK(wt) enzyme (33P-ATP filter binding). It is filed as biochemical. Conditions: class symbols. The method, then: (§1) The substrate solution was prepared by adding the substrate poly(Glu, Tyr) sodium salt (Sigma Aldrich, St. Louis, Mo.) to the substrate reaction buffer (20 mM Hepes (pH 7.5), 10 mM MgCl2, 1 mM EGTA, 0.02% Brij35, 0.02 mg/mL BSA, 0.1 mM Na3VO4, 2 mM DTT and 1% DMSO) (final substrate concentration in the reaction solution was 0.2 μM). Test compound was formulated into stock solutions at 10 mM concentration with 100% DMSO, and 3-fold serial dilution for 10 doses was performed in a 384-well cyclic olefin copolymer LDV microplate. […] Test compound in 100% DMSO was then added to the kinase reaction mixture by acoustic liquid transfer technology (Echo 550; nanoliter range) (Labcyte Inc, Sunnyvale, Calif.) and incubated for 20 min at room temperature. 33P-ATP (specific activity 10 μCi/μL) was added to the reaction mixture to initiate the reaction, followed by incubation at room temperature for 2 h. A small portion of the reaction mixture was dropped onto P-81 ion exchange filter paper (Whatman). After washing the unbound phosphate from the filter paper with 0.75% phosphate buffer (three times) and drying, the remaining radioactivity on the filter paper was measured. The kinase activity was expressed as the percentage of the remaining kinase activity in the test sample to the kinase activity in the vehicle (dimethyl sulfoxide) blank control. IC50 values were calculated by curve fitting the data obtained using Prism (GraphPad Software).

For a further assay, the target named is BTK(C481S) (Homo sapiens (Human), UniProt Q06187, C481S). The experiment in a line: In vitro inhibitory activity against BTK(C481S) enzyme (33P-ATP filter binding). Format: biochemical. Conditions: class symbols; read-out: IC50 BTK(C48IS). The method, then:
as §1

Chain of BTK(wt) (Q06187 whole entry): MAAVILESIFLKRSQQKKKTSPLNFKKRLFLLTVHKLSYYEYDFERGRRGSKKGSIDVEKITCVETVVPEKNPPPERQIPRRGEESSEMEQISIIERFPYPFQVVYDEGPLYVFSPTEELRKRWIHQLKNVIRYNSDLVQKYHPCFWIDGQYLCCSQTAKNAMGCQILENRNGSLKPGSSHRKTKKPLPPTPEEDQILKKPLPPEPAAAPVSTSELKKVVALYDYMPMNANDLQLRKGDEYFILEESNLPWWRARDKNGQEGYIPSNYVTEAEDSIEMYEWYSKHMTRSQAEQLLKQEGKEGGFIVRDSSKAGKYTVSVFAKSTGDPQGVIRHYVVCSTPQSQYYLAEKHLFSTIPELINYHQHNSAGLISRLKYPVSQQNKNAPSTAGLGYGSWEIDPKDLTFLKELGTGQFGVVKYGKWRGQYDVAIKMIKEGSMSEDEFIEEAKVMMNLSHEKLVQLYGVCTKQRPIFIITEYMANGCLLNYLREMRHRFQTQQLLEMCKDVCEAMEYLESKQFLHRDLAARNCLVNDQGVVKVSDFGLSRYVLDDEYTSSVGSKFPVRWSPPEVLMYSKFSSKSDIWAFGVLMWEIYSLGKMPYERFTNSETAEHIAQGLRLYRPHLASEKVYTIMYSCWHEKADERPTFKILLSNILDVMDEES
Chain of BTK(C481S) (Q06187 whole entry C481S): as the sequence (Q06187 whole entry) above, with C481S counted along it

For `Nc1nccn2c(C34CCC(NC(=O)c5ccco5)(CC3)C4)nc(-c3ccc(C(=O)Nc4cc(C(F)(F)F)ccn4)cc3)c12` [Compound A-10-21, N-(4-(8-amino-1-(4-((4-(trifluoromethyl)pyridin-2-yl)carbamoyl)phenyl)imidazo[1,5-a]pyrazin-3-yl)bicyclo[2.2.1]heptan-1-yl)furan-2-carboxamide], the IC50 on BTK(wt) and on BTK(C481S) was 1 to 10 nM throughout.
With `Nc1nccn2c(C34CCC(NC(=O)c5nccs5)(CC3)C4)nc(-c3ccc(C(=O)Nc4cc(C(F)(F)F)ccn4)cc3)c12` [Compound A-10-22, N-(4-(8-amino-1-(4-((4-(trifluoromethyl)pyridin-2-yl)carbamoyl)phenyl)imidazo[1,5-a]pyrazin-3-yl)bicyclo[2.2.1]heptan-1-yl)thiazole-2-carboxamide], the IC50 at BTK(wt) and on BTK(C481S) was 1 to 10 nM each time.
Consider `CC(C)(O)C(=O)NC12CCC(c3nc(-c4ccc(Oc5ccccc5)cc4)c4c(N)nccn34)(CC1)C2` [Compound A-13-1, N-(4-(8-amino-1-(4-phenoxyphenyl)imidazo[1,5-a]pyrazin-3-yl)bicyclo[2.2.1]heptan-1-yl)-2-hydroxy-2-methylpropanamide], for which the IC50 on BTK(wt) and on BTK(C481S) was 1 to 10 nM each time.
For the compound `COCCC(=O)NC12CCC(c3nc(-c4ccc(Oc5ccccc5)cc4)c4c(N)nccn34)(CC1)C2` [Compound A-13-2, N-(4-(8-amino-1-(4-phenoxyphenyl)imidazo[1,5-a]pyrazin-3-yl)bicyclo[2.2.1]heptan-1-yl)-3-methoxypropanamide], the IC50 was in the range of 1 to 10 nM on BTK(wt) and 0.1 to 1 nM at BTK(C481S).
With `CC1(C(=O)NC23CCC(c4nc(-c5ccc(Oc6ccccc6)cc5)c5c(N)nccn45)(CC2)C3)COC1` [Compound A-13-3, N-(4-(8-amino-1-(4-phenoxyphenyl)imidazo[1,5-a]pyrazin-3-yl)bicyclo[2.2.1]heptan-1-yl)-3-methyloxetane-3-carboxamide], the IC50 on BTK(wt) and at BTK(C481S) was 1 to 10 nM throughout.
Take `Nc1nccn2c(C34CCC(NC(=O)CN5CCOCC5)(CC3)C4)nc(-c3ccc(Oc4ccccc4)cc3)c12` [Compound A-13-4, N-(4-(8-amino-1-(4-phenoxyphenyl)imidazo[1,5-a]pyrazin-3-yl)bicyclo[2.2.1]heptan-1-yl)-2-morpholinoacetamide]: the IC50 on BTK(wt) was 10 to 50 nM; on BTK(C481S), 1 to 10 nM.
On to `COc1ccc(F)cc1C(=O)NCc1ccc(-c2nc(C34CCC(NC(=O)C(C)(C)O)(CC3)C4)n3ccnc(N)c23)cc1` [Compound A-16-1, N-(4-(8-amino-3-(4-(2-hydroxy-2-methylpropanamido)bicyclo[2.2.1]heptan-1-yl)imidazo[1,5-a]pyrazin-1-yl)benzyl)-5-fluoro-2-methoxybenzamide], for which the IC50 on BTK(wt) lay within 10 to 50 nM; on BTK(C481S), 1 to 10 nM.
In the case of `COCCC(=O)NC12CCC(c3nc(-c4ccc(CNC(=O)c5cc(F)ccc5OC)cc4)c4c(N)nccn34)(CC1)C2` [Compound A-16-2, N-(4-(8-amino-3-(4-(3-methoxypropanamido)bicyclo[2.2.1]heptan-1-yl)imidazo[1,5-a]pyrazin-1-yl)benzyl)-5-fluoro-2-methoxybenzamide], the IC50 on BTK(wt) and on BTK(C481S) was 1 to 10 nM in each case.
For the compound `COc1ccc(F)cc1C(=O)NCc1ccc(-c2nc(C34CCC(NC(=O)C5(C)COC5)(CC3)C4)n3ccnc(N)c23)cc1` [Compound A-16-3, N-(4-(8-amino-1-(4-((5-fluoro-2-methoxybenzamido)methyl)phenyl)imidazo[1,5-a]pyrazin-3-yl)bicyclo[2.2.1]heptan-1-yl)-3-methyloxetane-3-carboxamide], the IC50 on BTK(wt) and on BTK(C481S) was 1 to 10 nM in each case.
For the compound `COc1ccc(F)cc1C(=O)NCc1ccc(-c2nc(C34CCC(NC(=O)CN5CCOCC5)(CC3)C4)n3ccnc(N)c23)cc1` [Compound A-16-4, N-(4-(8-amino-3-(4-(2-morpholinoacetamido)bicyclo[2.2.1]heptan-1-yl)imidazo[1,5-a]pyrazin-1-yl)benzyl)-5-fluoro-2-methoxybenzamide], the IC50 on BTK(wt) and on BTK(C481S) was 1 to 10 nM each time.
Regarding `CC#CC(=O)NC12CCC(n3cc(-c4ccc(C(=O)Nc5cc(C(F)(F)F)ccn5)cc4)c4c(N)ncnc43)(CC1)C2` [Compound B-6-1, 4-(4-amino-7-(4-(but-2-ynamido)bicyclo[2.2.1]heptan-1-yl)-7H-pyrrolo[2,3-d]pyrimidin-5-yl)-N-(4-(trifluoromethyl)pyridin-2-yl)benzamide], the IC50 on BTK(wt) and at BTK(C481S) was 1 to 10 nM throughout.
With `CC(C)(O)C(=O)NC12CCC(n3cc(-c4ccc(C(=O)Nc5cc(C(F)(F)F)ccn5)cc4)c4c(N)ncnc43)(CC1)C2` [Compound B-6-2, 4-(4-amino-7-(4-(2-hydroxy-2-methylpropanamido)bicyclo[2.2.1]heptan-1-yl)-7H-pyrrolo[2,3-d]pyrimidin-5-yl)-N-(4-(trifluoromethyl)pyridin-2-yl)benzamide], the half-maximal inhibitory concentration (IC50) on BTK(wt) lay within 10 to 50 nM; at BTK(C481S) it was 1 to 10 nM.
With `COCCC(=O)NC12CCC(n3cc(-c4ccc(C(=O)Nc5cc(C(F)(F)F)ccn5)cc4)c4c(N)ncnc43)(CC1)C2` [Compound B-6-3, 4-(4-amino-7-(4-(3-methoxypropanamido)bicyclo[2.2.1]heptan-1-yl)-7H-pyrrolo[2,3-d]pyrimidin-5-yl)-N-(4-(trifluoromethyl)pyridin-2-yl)benzamide], the IC50 at BTK(wt) and on BTK(C481S) was 1 to 10 nM in each case.
As for `CC1(C(=O)NC23CCC(n4cc(-c5ccc(C(=O)Nc6cc(C(F)(F)F)ccn6)cc5)c5c(N)ncnc54)(CC2)C3)COC1` [Compound B-6-4, N-(4-(4-amino-5-(4-((4-(trifluoromethyl)pyridin-2-yl)carbamoyl)phenyl)-7H-pyrrolo[2,3-d]pyrimidin-7-yl)bicyclo[2.2.1]heptan-1-yl)-3-methyloxetane-3-carboxamide], the IC50 at BTK(wt) and at BTK(C481S) was 1 to 10 nM in each case.
In the case of `Nc1ncnc2c1c(-c1ccc(C(=O)Nc3cc(C(F)(F)F)ccn3)cc1)cn2C12CCC(NC(=O)CN3CCOCC3)(CC1)C2` [Compound B-6-5, 4-(4-amino-7-(4-(2-morpholinoacetamido)bicyclo[2.2.1]heptan-1-yl)-7H-pyrrolo[2,3-d]pyrimidin-5-yl)-N-(4-(trifluoromethyl)pyridin-2-yl)benzamide], the IC50 at BTK(wt) and at BTK(C481S) was 1 to 10 nM each time.
Turning to `CC#CC(=O)NC12CCC(n3c(=O)n(-c4ccc(C(=O)Nc5cc(C(F)(F)F)ccn5)cc4)c4c(N)ncnc43)(CC1)C2` [Compound C-7-1, 4-(6-amino-9-(4-(but-2-ynamido)bicyclo[2.2.1]heptan-1-yl)-8-oxo-8,9-dihydro-7H-purin-7-yl)-N-(4-(trifluoromethyl)pyridin-2-yl)benzamide], the 50% inhibitory concentration (IC50) on BTK(wt) and on BTK(C481S) was 1 to 10 nM in each case.
As to `Nc1ncnc2c1n(-c1ccc(C(=O)Nc3cc(C(F)(F)F)ccn3)cc1)c(=O)n2C12CCC(NC(=O)CN3CCOCC3)(CC1)C2` [Compound C-7-2, 4-(6-amino-9-(4-(2-morpholinoacetamido)bicyclo[2.2.1]heptan-1-yl)-8-oxo-8,9-dihydro-7H-purin-7-yl)-N-(4-(trifluoromethyl)pyridin-2-yl)benzamide], the IC50 on BTK(wt) fell in the range of 1 to 10 nM; on BTK(C481S), 0.1 to 1 nM.
